Experimental data: article PMC9249544, “Identification of Flavonoid C-Glycosides as Promising Antidiabetics Targeting Protein Tyrosine Phosphatase 1B” (Journal of Diabetes Research, 2022)

Molecular target: T1, Protein tyrosine phosphatase 1B (PTP1B) (Homo sapiens, UniProt P18031)
T1 construct: gene PTPN1
T1 sequence (P18031 1-435): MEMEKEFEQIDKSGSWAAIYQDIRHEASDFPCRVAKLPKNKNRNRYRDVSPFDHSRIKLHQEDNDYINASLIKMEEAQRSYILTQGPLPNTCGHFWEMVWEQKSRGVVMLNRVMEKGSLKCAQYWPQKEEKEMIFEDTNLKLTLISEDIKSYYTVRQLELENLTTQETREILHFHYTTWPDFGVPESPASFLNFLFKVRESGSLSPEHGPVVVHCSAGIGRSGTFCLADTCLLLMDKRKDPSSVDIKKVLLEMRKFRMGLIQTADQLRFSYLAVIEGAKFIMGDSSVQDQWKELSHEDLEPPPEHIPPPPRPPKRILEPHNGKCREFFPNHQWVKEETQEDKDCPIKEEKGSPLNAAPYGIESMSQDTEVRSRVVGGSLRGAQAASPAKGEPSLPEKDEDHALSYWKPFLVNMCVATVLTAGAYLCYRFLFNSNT
Experiment: p-NPP hydrolysis assay with human recombinant PTP1B ([…] nm); Lineweaver-Burk kinetics
Assay type: biochemical

With `O=c1cc(-c2ccc(O)c(O)c2)oc2c([C@@H]3O[C@H](CO)[C@@H](O)[C@H](O)[C@H]3O)c(O)cc(O)c12` [orientin] as the compound, how does the IC50 read?
The IC50 was 401 µM.
